Patent US10745401B2, “Condensed lactam derivative” (Sumitomo Dainippon Pharma Co., Ltd., priority 2018, dated 2020)

Columns and labels:
human 5-HT2A receptor [1] = target: T1, human 5-HT2A receptor (Homo sapiens (Human), UniProt P28223); assay: Test 1: binding activity for human 5-HT2A receptor ([3H]Ketanserin, CHO cell membrane fraction)
Summary of the method: (§1)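 CHO-cell membranes with [3H]ketanserin (5-HT2A) or [3H]spiperone (D2) were incubated with compound for 60 min at room temperature, then filtered, and bound radioactivity was counted by scintillation. Ki = IC50/(1+S/Kd), with ligand Kd from saturation binding on the same membranes.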

human 5-HT1A receptor [2] = target: T2, human 5-HT1A receptor (Homo sapiens (Human), UniProt P08908); assay: Test 1: binding activity for human 5-HT1A receptor ([3H]8-OH-DPAT, CHO cell membrane fraction)
T2 sequence (P08908 whole entry): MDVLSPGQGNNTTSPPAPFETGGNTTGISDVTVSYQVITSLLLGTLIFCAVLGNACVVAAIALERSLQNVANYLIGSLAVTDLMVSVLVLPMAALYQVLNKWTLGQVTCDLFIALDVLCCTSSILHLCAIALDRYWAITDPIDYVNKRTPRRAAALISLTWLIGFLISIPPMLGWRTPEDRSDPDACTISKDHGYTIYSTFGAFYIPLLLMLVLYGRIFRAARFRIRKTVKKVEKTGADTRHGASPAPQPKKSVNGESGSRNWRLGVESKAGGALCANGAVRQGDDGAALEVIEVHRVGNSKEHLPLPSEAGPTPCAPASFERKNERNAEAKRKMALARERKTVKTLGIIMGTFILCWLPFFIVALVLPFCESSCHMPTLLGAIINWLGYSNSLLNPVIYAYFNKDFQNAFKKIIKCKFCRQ
Summary of the method: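 Membranes incubated with [3H]8-OH-DPAT and compound for 60 min at room temperature, then filtered on polyethylenimine-coated glass-fibre plates and counted by liquid scintillation. IC50 from Hill analysis; Ki = IC50/(1+S/Kd), Kd from saturation binding on the same membranes.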

hERG channel = hERG channel (Homo sapiens (Human), UniProt Q12809); assay: Test 6-1: inhibitory activity for hERG channel (auto patch clamp, Qpatch); assay type: cell-based; conditions: for hERG inhibition IC50 (nmol/L)/5-HT1A Ki (nmol/L): ratio of hERG IC50 to 5-HT1A Ki; for hERG inhibition IC50 (nmol/L)/5-HT2A Ki (nmol/L): ratio of hERG IC50 to 5-HT2A Ki; for IC50: whole cell auto patch clamp, hERG-CHO cells, read-out: hERG inhibition IC50
hERG channel, sequence (Q12809 whole entry): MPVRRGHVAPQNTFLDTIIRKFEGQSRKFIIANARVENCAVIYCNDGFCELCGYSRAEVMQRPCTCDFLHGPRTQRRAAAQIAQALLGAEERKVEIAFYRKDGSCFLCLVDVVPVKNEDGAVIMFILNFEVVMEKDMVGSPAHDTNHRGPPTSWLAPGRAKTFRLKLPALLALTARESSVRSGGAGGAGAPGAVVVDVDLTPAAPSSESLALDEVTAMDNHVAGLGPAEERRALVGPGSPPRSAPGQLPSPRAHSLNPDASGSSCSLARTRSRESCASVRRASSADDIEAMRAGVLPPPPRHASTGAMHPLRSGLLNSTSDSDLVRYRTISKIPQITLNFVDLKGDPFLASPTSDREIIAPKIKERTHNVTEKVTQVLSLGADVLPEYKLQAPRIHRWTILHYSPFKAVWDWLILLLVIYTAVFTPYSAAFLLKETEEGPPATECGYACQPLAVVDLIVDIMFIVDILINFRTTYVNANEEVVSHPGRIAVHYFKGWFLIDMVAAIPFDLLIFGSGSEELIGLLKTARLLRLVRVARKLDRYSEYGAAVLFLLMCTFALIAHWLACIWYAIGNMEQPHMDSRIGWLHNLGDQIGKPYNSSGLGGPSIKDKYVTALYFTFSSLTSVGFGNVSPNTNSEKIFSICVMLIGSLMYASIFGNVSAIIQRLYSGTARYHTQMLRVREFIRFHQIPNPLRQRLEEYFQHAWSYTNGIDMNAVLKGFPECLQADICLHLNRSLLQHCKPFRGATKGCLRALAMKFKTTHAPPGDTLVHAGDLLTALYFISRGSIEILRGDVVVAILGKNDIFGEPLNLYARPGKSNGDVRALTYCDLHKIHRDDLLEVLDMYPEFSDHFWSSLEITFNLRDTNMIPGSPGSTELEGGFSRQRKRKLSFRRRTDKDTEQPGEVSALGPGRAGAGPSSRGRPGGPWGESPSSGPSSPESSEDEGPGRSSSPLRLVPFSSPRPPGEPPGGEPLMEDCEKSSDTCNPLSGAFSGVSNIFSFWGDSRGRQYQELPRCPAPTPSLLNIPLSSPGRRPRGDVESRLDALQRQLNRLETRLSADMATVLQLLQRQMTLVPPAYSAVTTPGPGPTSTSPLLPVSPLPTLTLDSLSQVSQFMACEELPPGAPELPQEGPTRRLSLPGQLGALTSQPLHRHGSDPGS
Summary of the method: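 Whole-cell patch clamp on an automated system using CHO cells stably expressing human hERG (IKr); 15 s pulse interval. Four increasing compound concentrations applied cumulatively; mean peak tail current from last 3 stimulations per concentration used. IC50 from inhibition versus pre-compound current, fitted by Hill equation.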

human 5-HT2A receptor [3] = target: T1, human 5-HT2A receptor; assay: Test 3: antagonist activity for human 5-HT2A receptor (aequorin luminescence, CHO-K1 cells); assay type: cell-based; conditions: CHO-K1 cells, 1 nmol/L 5-HT
Summary of the method: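 CHO-K1 cells transiently co-expressing aequorin, Gα16 and receptor; compound in DMSO added and luminescence recorded on FDSS/μCELL.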

[4] = Test 4: metabolic stability test in human hepatic microsome; assay type: in vitro ADME; conditions: 0.1 mg/mL microsome, 0.1 μmol/L compound, 37° C., 30 minutes
Summary of the method: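 Compound at 0.1 μmol/L incubated 30 min at 37° C with human liver microsomes (0.1 mg/mL) and NADPH (3.2 mmol/L) in 25 mmol/L phosphate buffer, pH 7.4. Residual compound measured by LC-MS; stability (mL/min/mg protein) = −LN(residual ratio)/30/0.1.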

P-gp (MDR1) = P-gp (MDR1) (Homo sapiens (Human), UniProt P08183); assay: Test 9: P-gp substrate property (NFR, MDCKII and MDR1-MDCKII cells); assay type: in vitro ADME; conditions: Net Flux Ratio, MDR1-MDCKII vs MDCKII cells
P-gp (MDR1), sequence (P08183 whole entry, species assumed): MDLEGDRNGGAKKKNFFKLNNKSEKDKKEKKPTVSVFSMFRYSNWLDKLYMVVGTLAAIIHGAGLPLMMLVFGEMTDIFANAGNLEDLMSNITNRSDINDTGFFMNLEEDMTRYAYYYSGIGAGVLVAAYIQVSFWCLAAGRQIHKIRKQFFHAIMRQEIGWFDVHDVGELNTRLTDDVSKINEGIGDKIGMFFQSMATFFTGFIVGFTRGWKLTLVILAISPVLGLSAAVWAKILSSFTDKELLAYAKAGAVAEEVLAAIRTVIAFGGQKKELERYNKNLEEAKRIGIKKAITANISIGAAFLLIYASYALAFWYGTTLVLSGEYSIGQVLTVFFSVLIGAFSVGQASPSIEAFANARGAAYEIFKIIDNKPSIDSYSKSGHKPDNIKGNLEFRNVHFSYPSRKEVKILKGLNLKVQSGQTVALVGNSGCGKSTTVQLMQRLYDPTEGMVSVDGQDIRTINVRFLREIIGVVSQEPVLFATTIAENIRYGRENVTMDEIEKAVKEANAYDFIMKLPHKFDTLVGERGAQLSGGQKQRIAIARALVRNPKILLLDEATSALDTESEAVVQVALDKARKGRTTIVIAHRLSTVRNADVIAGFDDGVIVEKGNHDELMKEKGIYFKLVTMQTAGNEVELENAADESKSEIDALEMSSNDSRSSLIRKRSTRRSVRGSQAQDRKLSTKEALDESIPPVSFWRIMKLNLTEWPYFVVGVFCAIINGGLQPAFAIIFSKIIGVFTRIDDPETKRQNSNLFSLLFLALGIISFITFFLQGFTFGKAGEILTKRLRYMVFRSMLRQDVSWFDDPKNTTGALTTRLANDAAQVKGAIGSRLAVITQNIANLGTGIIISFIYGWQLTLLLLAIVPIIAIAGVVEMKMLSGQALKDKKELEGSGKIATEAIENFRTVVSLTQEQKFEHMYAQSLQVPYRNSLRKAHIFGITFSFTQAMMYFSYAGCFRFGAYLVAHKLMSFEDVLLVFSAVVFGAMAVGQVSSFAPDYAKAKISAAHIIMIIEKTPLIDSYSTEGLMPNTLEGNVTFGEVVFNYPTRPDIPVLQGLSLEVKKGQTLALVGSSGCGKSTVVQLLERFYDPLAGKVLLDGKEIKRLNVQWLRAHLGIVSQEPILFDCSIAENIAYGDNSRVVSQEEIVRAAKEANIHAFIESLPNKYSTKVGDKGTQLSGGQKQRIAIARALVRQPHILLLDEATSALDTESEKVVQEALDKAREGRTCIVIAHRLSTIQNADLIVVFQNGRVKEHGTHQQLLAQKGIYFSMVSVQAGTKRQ
Experimental: […]
NFR (Net Flux Ratio), which is an index of P-gp substrate property, can be calculated as follows. MDCKII (Madin-Darby canine kidney strain II) cells and MDR1-MDCKII cells in which MDR1 (multidrug resistance protein 1) was overexpressed were used to measure an apparent permeability coefficient (Papp A-B) from lumen (A) to basement membrane (B) and an apparent permeability coefficient (Papp B-A) from basement membrane (B) to lumen (A) of both MDCKII cells and MDR1-MDCKII cells. NFR (Net Flux Ratio) was calculated from the ratio between Ratio (Papp B-A/Papp A-B) of an apparent permeability coefficient of MDR1-MDCKII cells and Ratio of an apparent permeability coefficient of MDCKII cells.

human D2 receptor = human D2 receptor (Homo sapiens (Human), UniProt P14416); assay: Test 1: binding activity for human D2 receptor ([3H]Spiperone, CHO cell membrane fraction); conditions: for Ki: human D2 receptor, [3H]Spiperone; for D2 Ki/5-HT1A Ki / D2 Ki/5-HT2A Ki: selectivity ratio
human D2 receptor, sequence (P14416 whole entry): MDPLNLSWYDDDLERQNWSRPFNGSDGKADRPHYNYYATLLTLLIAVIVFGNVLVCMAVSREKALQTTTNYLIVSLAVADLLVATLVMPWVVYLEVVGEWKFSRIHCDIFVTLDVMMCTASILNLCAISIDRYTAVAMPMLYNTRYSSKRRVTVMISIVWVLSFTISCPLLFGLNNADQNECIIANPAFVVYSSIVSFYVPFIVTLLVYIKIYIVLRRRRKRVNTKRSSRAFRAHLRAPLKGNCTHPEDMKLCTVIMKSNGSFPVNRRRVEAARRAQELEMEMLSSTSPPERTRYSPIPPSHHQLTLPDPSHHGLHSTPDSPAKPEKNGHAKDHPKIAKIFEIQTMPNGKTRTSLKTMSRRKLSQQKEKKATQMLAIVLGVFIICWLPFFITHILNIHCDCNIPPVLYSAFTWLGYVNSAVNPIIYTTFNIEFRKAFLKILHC
Summary of the method: as §1

human 5-HT1A receptor [5] = target: T2, human 5-HT1A receptor; assay: Test 2: agonist activity for human 5-HT1A receptor ([35S]GTPγS binding); assay type: biochemical; conditions: for EC50: [35S]GTPγS binding, concentration at which half the activity of Emax was obtained; for Emax at 10 µM: agonist activity in the presence of 10 μM of compound, relative to 100 μmol/L 5-HT
Summary of the method: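 Membranes from CHO cells expressing human 5-HT1A incubated with compound, GDP-containing buffer and [35S]GTPγS for 60 min at room temperature. Bound radioactivity collected by glass-fibre filtration and counted by liquid scintillation; agonist activity derived from a formula.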

[6] = Test 5: predictive test of human half-life (monkey distribution volume, serum unbound fraction, microsomal stability); assay type: in vivo; conditions: predicted from cynomolgus monkey distribution volume (i.v.), serum unbound fraction and human hepatic microsome stability
Experimental: Test 5: Predictive Test of Human Half-Life
The present compound was intravenously administered to cynomolgus monkey as an aqueous solution in 0.01 mol/L hydrochloric acid. Blood was collected on 5 minutes, 15 minutes, 30 minutes, 1 hour, 2 hours, 4 hours, 6 hours, and 24 hours after the administration. Plasma was obtained from the collected blood, the drug concentration in the plasma was measured by LC-MS, and the distribution volume of monkey was calculated from the transition of the concentration.
The unbound fraction rate of the present compound in human or monkey serum was measured by equilibrium dialysis method.
The half-life in human was calculated according to the following formula using the results of the distribution volume of monkey, the unbound fraction rate in human or monkey serum, and the metabolic stability in human hepatic microsome obtained in Test 3.

T1 sequence (P28223 whole entry): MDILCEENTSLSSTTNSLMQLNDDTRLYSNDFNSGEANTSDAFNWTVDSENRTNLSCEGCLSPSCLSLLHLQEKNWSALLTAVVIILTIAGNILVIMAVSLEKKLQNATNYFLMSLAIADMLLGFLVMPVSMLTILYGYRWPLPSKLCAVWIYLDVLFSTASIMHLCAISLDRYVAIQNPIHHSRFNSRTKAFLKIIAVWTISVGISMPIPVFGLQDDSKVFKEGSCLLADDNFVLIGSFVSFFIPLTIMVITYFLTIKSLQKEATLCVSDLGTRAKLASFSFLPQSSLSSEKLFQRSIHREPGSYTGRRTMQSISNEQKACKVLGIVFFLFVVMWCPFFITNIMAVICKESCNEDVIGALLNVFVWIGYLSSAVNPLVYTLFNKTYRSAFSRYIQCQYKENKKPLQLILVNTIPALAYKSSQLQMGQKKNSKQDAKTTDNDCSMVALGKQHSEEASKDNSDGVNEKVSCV

SMILES	Ki (human 5-HT2A receptor [1])	Ki (human 5-HT1A receptor [2])	hERG inhibition IC50 (nmol/L)/5-HT1A Ki (nmol/L) (hERG channel)	hERG inhibition IC50 (nmol/L)/5-HT2A Ki (nmol/L) (hERG channel)	IC50 (hERG channel)	IC50 (human 5-HT2A receptor [3])	Metabolic stability in human hepatic microsome [4]	NFR (P-gp (MDR1))	Ki (human D2 receptor)	D2 Ki/5-HT1A Ki (human D2 receptor)	D2 Ki/5-HT2A Ki (human D2 receptor)	EC50 (human 5-HT1A receptor [5])	Emax at 10 µM (human 5-HT1A receptor [5])	IC50 (human 5-HT2A receptor [3]; aequorin luminescence)	half-life [6]
Cn1cc2c(n1)CCN(CCN1CCN(c3nsc4ccccc34)CC1)C2=O [Example 36, 5-{2-[4-(1,2-Benzoisothiazol-3-yl)piperazin-1-yl]ethyl}-2-methyl-2,5,6,7-tetrahydro-4H-pyrazolo[4,3-c]pyridin-4-one]	0.62 nM	0.45 nM	7112	5162	3200 nM	6 nM	0.085 mL/min/mg protein	1.8	903 nM	2007	1456	2.7 nM	78%		
Cn1ncc2c1C(=O)N(CCN1CCN(c3nsc4ccccc34)CC1)CC2 [Example 59]	0.45 nM	1.99 nM				9 nM	0.173 mL/min/mg protein	1.1	125 nM	63	278	8 nM	61%		
CCc1ccc2c(n1)C(=O)N(CCN1CCC(c3noc4ccccc34)CC1)CC2 [Example 185]	28.3 nM	3.26 nM	214	25	700 nM		<0.05 mL/min/mg protein	2.4	1170 nM	358.6	41.4	95.3 nM	52%	68.7 nM	
O=C1c2nc(Cl)ccc2CCN1CCN1CCC(c2noc3ccccc23)CC1 [Example 146]	10.7 nM	3.02 nM	99	28	300 nM		<0.05 mL/min/mg protein	2.3	772 nM	255.8	72.4	6.07 nM	55%	199 nM	
Cn1ccc2c1CCN(CCN1CCC(c3noc4ccccc34)CC1)C2=O [Example 60]	1.1 nM	13.7 nM	51	640	700 nM	3.91 nM	0.018 mL/min/mg protein	1.5	260 nM	19	236	43 nM	54%		
Cn1ccc2c1CCCN(CCN1CCC(c3noc4ccccc34)CC1)C2=O [Example 103, 5-{2-[4-(1,2-Benzoisoxazol-3-yl)piperidin-1-yl]ethyl}-1-methyl-5,6,7,8-tetrahydropyrrolo[3,2-c]azepin-4(1H)-one]		0.47 nM			1400 nM		<0.01 mL/min/mg protein		129 nM			5.8 nM	62%		> 45 h
Cc1ncc2c(n1)CCN(CCN1CCC(c3noc4ccccc34)CC1)C2=O [Example 88, 6-{2-[4-(1,2-Benzoisoxazol-3-yl)piperidin-1-yl]ethyl}-2-methyl-7,8-dihydropyrido[4,3-d]pyrimidin-5(6H)-one]		6.3 nM			5600 nM		<0.01 mL/min/mg protein		916 nM			37 nM	49%		> 23 h
